Results from paper PMC8900257 (ACS chemical biology, 2019).
Values joined by “and” are separate entries in the source; they are usually repeats but may differ in a detail not shown here. Equal values may be shown once. Read-outs that look alike come from different tables or passages of the source.

Experiments:
[1] = tested on: M. tuberculosis H37Rv fructose-bisphosphate aldolase (FBA); details: ref PubChem Bioassay AID 588726; cited from earlier work
M. tuberculosis [2] = details: Table 1; nd = no detected effect; ref PubChem Bioassay AID 449762; cited from earlier work
M. tuberculosis [3] = details: Table 1; values deduced from ref PubChem Bioassay AID 1626; cited from earlier work
M. tuberculosis H37Rv = assay: M. tuberculosis growth inhibition; assay type: cell-based, Mycobacterium tuberculosis; details: for MIC: Mycobacterium tuberculosis, H37RV, read-out: Mycobacterium Growth inhibition, MIC (μM) tuberculosis, Table 2, this study
[4] = tested on: non-replicating M. smegmatis; assay: Cell viability by CFU assay under carbon starvation; assay type: cell-based, Mycobacterium smegmatis; details: Mycolicibacterium smegmatis, 96 h, read-out: colony forming unit (CFU) reduction
NAD pool = NAD pool level in M. smegmatis, colorimetric detection kit; assay type: cell-based, Mycobacterium smegmatis

Row | Structure (SMILES) | Enzyme inhibition (%) at 1 μM MtFBA [1] | Mycobacterium Growth inhibition MIC (μM) tuberculosis e (M. tuberculosis [2]) [µM] | also measured
1 | CCCNC(=O)c1cn(CC)c2cc(N3CCN(C(=O)c4ccco4)CC3)c(F)cc2c1=O [N1–3] | 79.9% | 25 | –
2 | CCN(CC)CCCNC(=O)c1cn(CC)c2cc(N3CCN(C(=O)c4ccco4)CC3)c(F)cc2c1=O [N1–31] | 54.21% | >25 | –
3 | CCn1cc(C(=O)Nc2ncccc2O)c(=O)c2cc(F)c(N3CCN(C(=O)c4ccco4)CC3)cc21 [N1–20] | 14.6% | – | –
4 | CCn1cc(C(=O)NCc2ccccc2)c(=O)c2cc(F)c(N3CCN(C(=O)c4ccco4)CC3)cc21 [N1–10] | 20% and 20.43% | 25 | Mycobacterium Growth inhibition MIC (μM) tuberculosis d (M. tuberculosis [3]): <10 µM
5 | C=CCNC(=O)c1cn(CC)c2cc(N3CCN(C(=O)c4ccco4)CC3)c(F)cc2c1=O [N1–4] | 97.0% | 25 | –
6 | CCn1cc(C(=O)NCc2ccco2)c(=O)c2cc(F)c(N3CCN(C(=O)c4ccco4)CC3)cc21 [N1–29] | 19.8% | <25 | Mycobacterium Growth inhibition MIC (μM) tuberculosis d (M. tuberculosis [3]): >10 µM
7 | CCn1cc(C(=O)NCc2ccncc2)c(=O)c2cc(F)c(N3CCN(C(=O)c4ccco4)CC3)cc21 [N1–16] | 41.76% | – | Mycobacterium Growth inhibition MIC (μM) tuberculosis d (M. tuberculosis [3]): >100 µM
8 | CCC(C)NC(=O)c1cn(CC)c2cc(N3CCN(C(=O)c4ccco4)CC3)c(F)cc2c1=O (stereo not drawn) [N1–2] | 54.28% | 50 | –
9 | CCn1cc(C(=O)NCC(C)C)c(=O)c2cc(F)c(N3CCN(C(=O)c4ccco4)CC3)cc21 [N1–6] | 11.37% | – | –
10 | CCCCNC(=O)c1cn(CC)c2cc(N3CCN(C(=O)c4ccco4)CC3)c(F)cc2c1=O [N1–5] | 22.14% | >25 | –
11 | Cc1ccccc1OCc1n(CC(=O)OC2CC(C)CCC2C(C)C)c2ccccc2[n+]1C (stereo not drawn) [N2–9] | – | – | MIC (M. tuberculosis H37Rv): 38.5 µM
12 | COc1ccc(OCc2n(CC(=O)OC3CC(C)CCC3C(C)C)c3ccccc3[n+]2C)cc1 (stereo not drawn) [N2–11] | – | – | log reduction at 25 µM [4]: ≤ 4; NAD pool depletion (NAD pool; inhibitor at ~5× MIC added at log-phase, samples over 6 hours): rapid depletion of the NAD pool; MIC (M. tuberculosis H37Rv): 28 µM; Mycobacterium Growth inhibition, MIC (μM) tuberculosis (M. tuberculosis H37Rv; Table 2, this study): 28.2 µM
13 | CC1CCC(C(C)C)C(OC(=O)Cn2c(COc3ccccc3)[n+](C)c3ccccc32)C1 (stereo not drawn) [N2–8] | – | – | log reduction at 25 µM [4]: > 2; MIC (M. tuberculosis H37Rv): 21.2 µM
14 | Cc1ccc(OCc2n(CC(=O)OC3CC(C)CCC3C(C)C)c3ccccc3[n+]2C)cc1 (stereo not drawn) [N2–10] | – | – | MIC (M. tuberculosis H37Rv): 19.7 µM
15 | CCN(CC)CCNC(=O)c1cn(CC)c2cc(N3CCN(C(=O)c4ccco4)CC3)c(F)cc2c1=O [N1–30] | 22.17% | – | Mycobacterium Growth inhibition MIC (μM) tuberculosis d (M. tuberculosis [3]): >100 µM
16 | CC1CCC(C(C)C)C(OC(=O)Cn2c[n+](CC(=O)OC3CC(C)CCC3C(C)C)c3ccccc32)C1 (stereo not drawn) [N2–1] | – | – | MIC (M. tuberculosis H37Rv): 46.7 µM
17 | CCn1cc(C(=O)NCc2cccc(F)c2)c(=O)c2cc(F)c(N3CCN(C(=O)c4ccco4)CC3)cc21 [N1–13] | 40% and 38.2% | 25 | Mycobacterium Growth inhibition MIC (μM) tuberculosis d (M. tuberculosis [3]): 12.5 µM
18 | CCn1cc(C(=O)NCCC(C)C)c(=O)c2cc(F)c(N3CCN(C(=O)c4ccco4)CC3)cc21 [N1–7] | 14.68% | >25 | –
19 | COc1ccc(-c2n(CC(=O)OC3CC(C)CCC3C(C)C)c3ccccc3[n+]2C)cc1 (stereo not drawn) [N2–7] | – | – | NAD pool depletion (NAD pool): rapid depletion of the NAD pool
20 | CCn1cc(C(=O)NC(C)C)c(=O)c2cc(F)c(N3CCN(C(=O)c4ccco4)CC3)cc21 [N1–1] | 54.81% | >25 | –
